This data set in a line: Intra-Oral Caries Test (Test 2). It counts as in vivo. Conditions: plaque exposed twice a day to the peptide T1 solution. Here is the method: The anticariogenicity of phosphopeptide T1 was determined using a modification of the intra-oral caries test of Koulourides and Ostrom (Caries Res. 10:442-482, 1976). Enamel slabs were inset in a removable intra-oral appliance to simulate an approximal area. This was done on both sides of the removable appliance (left and right). The appliance was worn to allow plaque accumulation in the simulated approximal areas. Eight times a day the appliance was removed and placed in a solution at 37° C. The solution was 2% w/v sucrose, 2% w/v glucose, 140 mM KCl, 20 mM NaCl at pH 7.0. Twice a day the right side enamel slabs received exposure to a solution containing 1.8% w/v calcium phosphate T1 in 140 mM KCl, 20 mM NaCl at pH 7.0, while the left side received only the salt solution. At the completion of the experiment the enamel slabs were removed, sectioned and subjected to microradiography and microhardness testing. […] The results were confirmed by microhardness analysis. Plaque was also taken from both sides of the appliance and analysed for calcium phosphate, serine phosphate and peptide T1 using a competitive, quantitative, enzyme-linked immunosorbent assay (ELISA) utilising monoclonal antipeptide T1 antibodies.

This note sets out measurements from US5015628A, “Anticariogenic phosphopeptides” (The University of Melbourne, priority 1986, dated 1991).

Where a SMILES comes first, the peptide text is derived from it. [ ]: non-standard residue; d: D form. pS = N[C@@H](COP(=O)(O)O)C(=O)O

For `CC[C@H](C)[C@H](NC(=O)[C@H](COP(=O)(O)O)NC(=O)[C@H](CCC(=O)O)NC(=O)[C@H](C)NC(=O)[C@H](CCC(=O)O)NC(=O)[C@H](CCSC)NC(=O)[C@@H](N)CCC(=O)O)C(=O)N[C@@H](COP(=O)(O)O)C(=O)N[C@@H](COP(=O)(O)O)C(=O)N[C@@H](COP(=O)(O)O)C(=O)N[C@@H](CCC(=O)O)C(=O)N[C@@H](CCC(=O)O)C(=O)N[C@H](C(=O)N[C@H](C(=O)N1CCC[C@H]1C(=O)N[C@@H](CC(N)=O)C(=O)N[C@@H](COP(=O)(O)O)C(=O)N[C@H](C(=O)N[C@@H](CCC(=O)O)C(=O)N[C@@H](CCC(N)=O)C(=O)N[C@@H](CCCCN)C(=O)O)C(C)C)C(C)C)[C@@H](C)CC` [T1, Glu-Met-Glu-Ala-Glu-Pse-Ile-Pse-Pse-Pse-Glu-Glu-Ile-Val-Pro-Asn-Pse-Val-Glu-Gln-Lys] (H-EMEAE[pS]I[pS][pS][pS]EEIVPN[pS]VEQK-OH), the “level of peptide in plaque (ELISA)” value is “at least 0.4 % w/wet wt of plaque”.
